For one compound, Ki results are on record in patent US7563899B2, “(S)-N-methylnaltrexone” (Progenics Pharmaceuticals, Inc., priority 2005, dated 2009).

Structures can show the parent of a compound that is named as a salt.

Usually Ki stands for a measure of affinity in units of concentration, obtained from inhibition or displacement.

The experiment addresses human recombinant kappa opioid receptors (Homo sapiens, UniProt P41145). Briefly: Radioligand binding assay, kappa opioid receptor. On the procedure:
Radioligand binding assays were conducted to determine the binding specificity of S-N-methynaltrexone for μ-, κ-, and δ-opiate receptors using methods adapted from scientific literature (Simonin, F et al 1994, Mol. Pharmacol 46:1015-1021; Maguire, P. et al 1992, Eur. J. Pharmacol. 213:219-225; Simonin, F. et al PNAS USA 92(15):1431-1437; Wang, J B 1994, FEBS Lett 338:217-222).

human recombinant kappa opioid receptors, sequence (P41145 whole entry): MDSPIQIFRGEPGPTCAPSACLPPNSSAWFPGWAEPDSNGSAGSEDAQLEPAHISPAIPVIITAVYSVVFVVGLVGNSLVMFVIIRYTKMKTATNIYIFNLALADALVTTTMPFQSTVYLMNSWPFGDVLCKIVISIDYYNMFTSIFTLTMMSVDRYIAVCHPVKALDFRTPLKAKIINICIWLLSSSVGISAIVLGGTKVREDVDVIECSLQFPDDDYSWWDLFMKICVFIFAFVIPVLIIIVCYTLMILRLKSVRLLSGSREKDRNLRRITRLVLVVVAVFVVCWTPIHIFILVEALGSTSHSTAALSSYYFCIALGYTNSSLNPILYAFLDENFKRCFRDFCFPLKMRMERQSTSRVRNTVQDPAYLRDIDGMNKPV

For the compound `C[N@@+]1(CC2CC2)CC[C@]23c4c5ccc(O)c4OC2C(=O)CCC3(O)C1C5` (stereo partly drawn) [S-MNTX, (S)-N-(cyclopropylmethyl)-noroxymorphone methyl salt], the inhibitory constant (Ki) was determined as 1760 nM.
